According to patent US20240342947A1, “A WOOD PRESERVATIVE COMPOSITION COMPRISING 4,5-DICHLORO-2-OCTYLISOTHIAZOL-3(2H)-ONE, A METHOD TREATING A WOOD SUBSTRATE THEREWITH, AND A WOOD PRODUCT PRODUCED THEREFROM” (KOPPERS PERFORMANCE CHEMICALS, INC., priority 2021, published 2024):

Assay: #2 Diesel solvency for DCOI testing
Assay type: physicochemical
Description: Solvency (i.e., ability to dissolve) of #2 diesel for DCOI was measured. Initially, different amounts of DCOI (98.5% purity) was dissolved in #2 diesel in respective vials to make a DCOI concentrate. Thereafter, the vials were stored at ambient temperature (i.e., 21 degrees Celsius+/−2 degrees) or 4 degrees Celsius for up to 7 days. During storage, the vials were monitored for phase separation, precipitation, and turbidity, which may indicate incompatibility between the organic solvent and the DCOI. Whenever a phase separation, precipitation or solution turbidity event happened, the vial was no longer monitored and the DCOI concentration in that solution was considered to be higher than the solvency of the organic solvent.
After two hours of storage at ambient temperature, it was observed that the solvency of #2 diesel for DCOI without any additional polar solvents was no greater than 15% by weight because the DCOI precipitated in the vials containing concentrations of DCOI of greater than 15% by weight. […] Therefore, the maximum solvency of #2 diesel is for DCOI was determined to be 15% by weight.

solvency of #2 diesel for DCOI (after two hours of storage at ambient temperature, without any additional polar solvents): ≤ 15 % by weight
maximum solvency of #2 diesel for DCOI (ambient temperature, no solid DCOI precipitated after 7 days): 15 % by weight
Compound: CCCCCCCCn1sc(Cl)c(Cl)c1=O [DCOI, 4,5-dichloro-2-octylisothiazol-3 (2H)-one]
